From PubChem BioAssay AID192 (DTP/NCI, 2004)
Several values for one entry are separate records, joined by “and”; a condition that tells them apart may be missing. Identical values can stand only once. Inconclusive results and toxic doses are left out. Numbered stars: 1 amine (or outer) side, 2 acyl side, 3 side chain; on linkers, the order of the positions; unused ones are H or OH. Bridge positions count the residues as written; N and C are the ends. Square brackets hold non-standard residues; d marks the D form. Peptide text beside a SMILES is read from it. I, II: the chains in the order shown. Actinocin(1to9) = Cc1c2oc3c(C)ccc(C(=O)[*:2])c3nc-2c(C(=O)[*:1])c(N)c1=O; X1 = O=C1CC(C(=O)[*:2])N([*:1])C1; NMeV = CN[CH](C(=O)O)C(C)C; Sar = CNCC(=O)O

System: BDF1 mice, B16 melanoma ip, median survival T/C
Assay: NCI In Vivo Anticancer Drug Screen. Data for tumor model B16 Melanoma (intraperitoneal) in B6D2F1 (BDF1) mice
Details: endpoint: median survival time, higher = longer survival
Outline: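 Compounds were tested in mice carrying transplantable tumors. Survival or tumor size was recorded, and each value is the treated-group measurement (T) divided by that of the vehicle-treated control group (C).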

[1] = dose: 12.5 mg/kg/injection, schedule: Q01DX009 (ip), vehicle: Klucel (hydroxypropylcellulose) (HPC)
[2] = dose: 12.5 mg/kg/injection, schedule: Q01DX009 (ip), vehicle: saline with Tween-80
[3] = dose: 25.0 mg/kg/injection, schedule: Q01DX009 (ip), vehicle: Klucel (hydroxypropylcellulose) (HPC)
[4] = dose: 25.0 mg/kg/injection, schedule: Q01DX009 (ip), vehicle: saline with Tween-80
[5] = dose: 50.0 mg/kg/injection, schedule: Q01DX009 (ip), vehicle: saline with Tween-80
[6] = dose: 100.0 mg/kg/injection, schedule: Q01DX009 (ip), vehicle: saline with Tween-80
[7] = dose: 200.0 mg/kg/injection, schedule: Q01DX009 (ip), vehicle: saline with Tween-80
[8] = dose: 50.0 mg/kg/injection, schedule: Q01DX009 (ip), vehicle: Klucel (hydroxypropylcellulose) (HPC)
[9] = dose: 50.0 mg/kg/injection, schedule: Q01DX009 (ip), vehicle: saline
[10] = dose: 100.0 mg/kg/injection, schedule: Q01DX009 (ip), vehicle: saline
[11] = dose: 25.0 mg/kg/injection, schedule: Q01DX009 (ip), vehicle: saline
[12] = dose: 6.25 mg/kg/injection, schedule: Q01DX009 (ip), vehicle: saline
[13] = dose: 12.5 mg/kg/injection, schedule: Q01DX009 (ip), vehicle: saline

CCO/C=C1\SC(=S)N(Cc2ccccc2)C1=O
T/C (dose: 3.12 mg/kg/injection, schedule: Q01DX009 (ip), vehicle: saline with Tween-80): 111 % of control | T/C (dose: 6.25 mg/kg/injection, schedule: Q01DX009 (ip), vehicle: saline with Tween-80): 123 % of control | T/C [1]: 92 % of control | T/C [2]: 123 % of control | T/C [3]: 102 % of control and 105 % of control | T/C [4]: 111 % of control

ClC1CCCC[N-]1.ClC1CCCC[N-]1.[Cl][Pt+2][Cl] (stereo unspecified)
T/C [2]: 91 % of control | T/C [4]: 97 % of control | T/C [5]: 89 % of control | T/C [6]: 108 % of control | T/C [7]: 105 % of control

Cc1c2oc3c(C)ccc(C(=O)NC4C(=O)NC(C(C)C)C(=O)N5CCCC5C(=O)N(C)CC(=O)N(C)C(C(C)C)C(=O)OC4C)c3nc-2c(C(=O)NC2C(=O)NC(C(C)C)C(=O)N3CC(=O)CC3C(=O)N(C)CC(=O)N(C)C(C(C)C)C(=O)OC2C)c(N)c1=O (stereo unspecified) (I: TV[X1][Sar][NMeV] / II: TVP[Sar][NMeV]; ester I:1-I:C, II:1-II:C; linker I:N-II:N via Actinocin(1to9); configuration not given here)
T/C (dose: 6.2 micrograms/kg/injection, schedule: Q01DX009 (ip), vehicle: water): 123 % of control | T/C (dose: 9.4 micrograms/kg/injection, schedule: Q04DX003 (ip), vehicle: water): 106 % of control | T/C (dose: 18.7 micrograms/kg/injection, schedule: Q04DX003 (ip), vehicle: water): 123 % of control | T/C (dose: 25.0 micrograms/kg/injection, schedule: Q01DX001 (ip), vehicle: water): 123 % of control | T/C (dose: 50.0 micrograms/kg/injection, schedule: Q01DX001 (ip), vehicle: water): 116 % of control | T/C (dose: 100.0 micrograms/kg/injection, schedule: Q01DX001 (ip), vehicle: water): 106 % of control

COC(=O)C(CSCc1ccccc1)NC(=O)CCNC(=O)OCc1ccccc1 (stereo unspecified)
T/C (dose: 25.0 mg/kg/injection, schedule: Q01DX009 (ip), vehicle: other): 107 % of control | T/C (dose: 50.0 mg/kg/injection, schedule: Q01DX009 (ip), vehicle: other): 92 % of control | T/C (dose: 100.0 mg/kg/injection, schedule: Q01DX009 (ip), vehicle: other): 97 % of control | T/C (dose: 200.0 mg/kg/injection, schedule: Q01DX009 (ip), vehicle: other): 93 % of control

O=C(O)C1CCCCC1C(=O)Nc1cccc(C(F)(F)F)c1 (stereo unspecified)
T/C [1]: 114 % of control | T/C [3]: 119 % of control | T/C [8]: 113 % of control

CN(C)c1ccc(/C=C2\C=Cc3ccccc32)cc1
T/C [5]: 92 % of control | T/C [6]: 89 % of control | T/C [7]: 92 % of control

Cc1ccc(NC(=O)Nc2ccccc2)cc1Cl
T/C (dose: 100.0 mg/kg/injection, schedule: Q01DX008 (sc), vehicle: olive oil, sesame oil, peanut oil): 99 % of control | T/C (dose: 200.0 mg/kg/injection, schedule: Q01DX008 (sc), vehicle: olive oil, sesame oil, peanut oil): 96 % of control | T/C (dose: 400.0 mg/kg/injection, schedule: Q01DX008 (sc), vehicle: olive oil, sesame oil, peanut oil): 98 % of control

Nc1nc(=S)c2ncn(C3OC(COC(=O)c4ccccc4)C(OC(=O)c4ccccc4)C3OC(=O)c3ccccc3)c2[nH]1 (stereo unspecified)
T/C [4]: 115 % of control

Cc1cccc(CN)n1
T/C [9]: 105 % of control | T/C [10]: 118 % of control

C=CCOc1cccc(OCC=C)c1C
T/C [6]: 106 % of control | T/C [7]: 97 % of control

O=c1[nH]c(Cl)ncc1F
T/C (dose: 37.5 mg/kg/injection, schedule: Q01DX009 (ip), vehicle: Klucel (hydroxypropylcellulose) (HPC)): 87 % of control

CCN(CC)CCOC(=O)Cc1cccc2c(=O)cc(-c3ccccc3)oc12
T/C [11]: 109 % of control | T/C [9]: 113 % of control

CN(C)CCOC(c1ccccc1)c1ccccc1
T/C (dose: 3.12 mg/kg/injection, schedule: Q01DX009 (ip), vehicle: saline): 86 % of control | T/C [12]: 100 % of control | T/C [13]: 100 % of control

CC1CN1P(=O)(N1CC1C)N1CC1C (stereo unspecified)
T/C [12]: 120 % of control | T/C [13]: 100 % of control and 112 % of control | T/C [11]: 113 % of control | T/C (dose: 25.0 mg/kg/injection, schedule: Q04DX003 (ip), vehicle: saline): 113 % of control | T/C (dose: 50.0 mg/kg/injection, schedule: Q04DX003 (ip), vehicle: saline): 120 % of control | T/C (dose: 100.0 mg/kg/injection, schedule: Q04DX003 (ip), vehicle: saline): 93 % of control

COc1cccc2c1C(=O)c1c(O)c3c(c(O)c1C2=O)C[C@@](O)(C(=O)COC(=O)CCCCC(=O)O)C[C@@H]3OC1CC(NC(=O)C(F)(F)F)C(O)C(C)O1 (stereo partly specified)
T/C (dose: 18.75 mg/kg/injection, schedule: Q01DX001 (ip), vehicle: other): 175 % of control | T/C (dose: 37.5 mg/kg/injection, schedule: Q01DX001 (ip), vehicle: other): 168 % of control and 205 % of control | T/C (dose: 75.0 mg/kg/injection, schedule: Q01DX001 (ip), vehicle: other): 205 % of control and 271 % of control | T/C (dose: 150.0 mg/kg/injection, schedule: Q01DX001 (ip), vehicle: other): 150 % of control

CC(C)C1NC(=O)C(N)C(C)OC(=O)C(C(C)C)N(C)C(=O)CN(C)C(=O)C2CCCN2C1=O (stereo unspecified) (tested in a mixture with another compound) (H-TVP[Sar][NMeV]; ester 1-C; configuration not given here)
T/C (dose: 0.22 mg/kg/injection, schedule: Q01DX009 (ip), vehicle: water): 156 % of control | T/C (dose: 25.0 micrograms/kg/injection, schedule: Q01DX009 (ip), vehicle: saline + alcohol): 107 % of control | T/C (dose: 50.0 micrograms/kg/injection, schedule: Q01DX009 (ip), vehicle: saline + alcohol): 122 % of control | T/C (dose: 75.0 micrograms/kg/injection, schedule: Q04DX003 (ip), vehicle: saline + alcohol): 107 % of control and 114 % of control | T/C (dose: 150.0 micrograms/kg/injection, schedule: Q04DX003 (ip), vehicle: saline + alcohol): 116 % of control | T/C (dose: 200.0 micrograms/kg/injection, schedule: Q01DX009 (ip), vehicle: saline + alcohol): 150 % of control | T/C (dose: 300.0 micrograms/kg/injection, schedule: Q04DX003 (ip), vehicle: saline + alcohol): 100 % of control | T/C (dose: 400.0 micrograms/kg/injection, schedule: Q01DX009 (ip), vehicle: saline + alcohol): 124 % of control | T/C (dose: 1200.0 micrograms/kg/injection, schedule: Q04DX003 (ip), vehicle: saline + alcohol): 93 % of control and 107 % of control

Nc1ccccc1SC1CC(=O)N(c2ccccc2)C1=O (stereo unspecified)
T/C [3]: 97 % of control | T/C [8]: 91 % of control | T/C (dose: 100.0 mg/kg/injection, schedule: Q01DX009 (ip), vehicle: Klucel (hydroxypropylcellulose) (HPC)): 90 % of control and 92 % of control

CCCCCCC/C=C/C(=O)OC1C(OC2C(OC(CCCCCCC)CC(=O)OC(CCCCCCC)CC(=O)O)OC(C)C(O)C2O)OC(C)C(O)C1O (stereo unspecified)
T/C [1]: 90 % of control | T/C [3]: 104 % of control | T/C [8]: 92 % of control

CC(C)c1ccc(C(=O)CCCCl)cc1
T/C [6]: 93 % of control | T/C [7]: 86 % of control

CSCCC(NC(=O)CN(C)C(=O)OCc1ccccc1)C(=O)O (stereo unspecified)
T/C [5]: 100 % of control | T/C [6]: 100 % of control

O=C(O)C(=O)O.O=C([O-])C(=O)[O-].O=C([O-])C(=O)[O-].[NH-]CC[NH-].[NH-]CC[NH-].[NH-]CC[NH-].[Ru+4].[Ru+5]
T/C (dose: 12.5 mg/kg/injection, schedule: Q04DX003 (ip), vehicle: water): 112 % of control | T/C (dose: 25.0 mg/kg/injection, schedule: Q04DX003 (ip), vehicle: water): 107 % of control

Cc1c[n+]2c3ccccc3c3ccccc3c2s1
T/C (dose: 10.0 mg/kg/injection, schedule: Q01DX009 (ip), vehicle: saline): 105 % of control | T/C (dose: 20.0 mg/kg/injection, schedule: Q01DX009 (ip), vehicle: saline): 105 % of control

O=C(O)CC(NC(=O)CP(=O)(O)O)C(=O)O.[NH-]C1CCCCC1[NH-].[Pt+2] (stereo unspecified)
T/C (dose: 0.4 mg/kg/injection, schedule: Q01DX009 (ip), vehicle: dextrose): 122 % of control | T/C (dose: 0.78 mg/kg/injection, schedule: Q01DX009 (ip), vehicle: dextrose): 154 % of control | T/C (dose: 1.56 mg/kg/injection, schedule: Q01DX009 (ip), vehicle: dextrose): 165 % of control | T/C (dose: 3.0 mg/kg/injection, schedule: Q01DX009 (ip), vehicle: dextrose): 123 % of control | T/C (dose: 3.2 mg/kg/injection, schedule: Q01DX009 (ip), vehicle: dextrose): 163 % of control

CCN(C)CCN(C)CC
T/C [10]: 95 % of control | T/C (dose: 200.0 mg/kg/injection, schedule: Q01DX009 (ip), vehicle: saline): 109 % of control
